Results published in US8008092B2, “CCR3 inhibition for ocular angiogenesis and macular degeneration” (University of Kentucky Research Foundation, priority 2007, dated 2011).

Tests used:
primary hCEC = experiment: F-actin polymerization assay; assay type: cell-based, human; conditions: eotaxin-1 10 ng/mL, eotaxin-2 100 ng/mL, eotaxin-3 2 μg/mL
Experimental: A F-actin polymerization assay was performed. 10,000 cells from early passage primary hCEC isolates (n=3) were seeded in black-walled 96-well plates and grown to 70-80% confluency in fully supplemented EGM-2MV. Cultures were serum starved overnight in basal media and then stimulated with recombinant human eotaxin-1 (10 ng/mL), eotaxin-2 (100 ng/mL), eotaxin-3 (2 μg/mL) (Peprotech), or vehicle control (PBS). At 0, 10, 30, 60, or 120 second time-points (n=4 per group), cells were fixed in 3.7% paraformaldehyde for 10 minutes, washed, permeabilized in PBS with 0.1% Triton-X, and then stained with rhodamine labeled Phalloidin (1:200, Invitrogen) per manufacturer's recommendations. Plates were analyzed on a fluorescent plate reader (Synergy 4, Biotek) followed by fluorescent microscopy (Nikon E800).
F-actin polymer ratios between baseline and treated cultures were calculated using a fluorescent based plate assay.

[1] = test system: Rac-1 GTPase in Human CECs (hCECs); experiment: Rac-1 activation assay (GST-Pak1-PBD pull-down, western blot); assay type: cell-based; conditions: hCEC, eotaxin-1 10 ng/ml, at 10 seconds, normalized against control band density
Experimental: A Rac-1 activation assay was performed. Human CECs were cultured in EGM-2 MV containing 5% FBS. Prior to starting the assay, cells were serum starved with basal medium (MCDB131) supplemented with 1% FB S overnight. Cells were stimulated for designated times with Eotaxin-1, 2 and 3 (10 ng/ml, 100 ng/ml and 2 μg/ml respectively). Equal amounts of lysates (500 μg) were incubated with GST-Pak1-PBD agarose beads (Upstate) to pull-down active GTP-bound Rac-1 at 4° C. for 1 hour with rotation. The samples were subsequently analyzed for bound Rac-1 by western blot analysis using an anti-Rac-1 antibody (Upstate). Band density was measured using VisionWorksLS software (UVP).
hCECs) were stimulated with Eotaxin-1, 2 and 3 for indicated times. Cells without Eotaxin stimulation were used as a control (0 sec). Equal amount (500 μg) of total cell lysates was used to determine the GTP-bound Rac-1 (active) by pull-down assays. Levels of increase of active Rac-1 were measured after normalizing against the control band density.

[2] = test system: choroidal neovascularization (CNV); experiment: Laser-induced choroidal neovascularization (CNV) volume, intravitreous injection; assay type: in vivo, C57BL/6J mice; conditions: wild-type mice, injected into the vitreous humor immediately after laser injury; compared to vehicle control (DMSO)
Experimental: Laser photocoagulation (532 nm, 200 mW, 100 ms, 75 μm) (OcuLight GL, Iridex Corporation) was performed (volume studies: 3/eye; protein analyses/flow cytometry: 12/eye) on both eyes of each animal to induce CNV (choroidal neovascularization). CNV volumes were measured by scanning laser confocal microscope (TCS SP, Leica) with 0.5% FITC-Griffonia simplicifolia Isolectin B4 (Vector Laboratories). CNV was induced by laser injury in C57BL/6J and Ccr3^−/− mice and volumes measured 7 days later by confocal evaluation of Griffonia simplicifolia Isolectin B4 staining of RPE-choroid flatmounts. […]
Because the probability of each laser lesion developing CNV is influenced by the group to which it belongs, the mouse, the eye, and the laser spot, the mean lesion volumes were compared using a linear mixed model with a split plot repeated measures design. […] Statistical significance was determined at the 0.05 level. […]
Laser photocoagulation (532 nm, 200 mW, 100 ms, 75 μm) (OcuLight GL, Iridex Corporation) was performed (volume studies: 3/eye; protein analyses/flow cytometry: 12/eye) on both eyes of each animal to induce CNV. CNV volumes were measured by scanning laser confocal microscope (TCS SP, Leica) with 0.5% FITC-Griffonia simplicifolia Isolectin B4 (Vector Laboratories) or 0.5% FITC-rat antibody against mouse CD31 (BD Biosciences). […]

Row | Molecule | time of peak F-actin polymerization after stimulation (primary hCEC) | increase of Rac-1 activation [1] | CNV volume [2]
1 | Eotaxin-1: recombinant human eotaxin-1 (Peprotech), CCR3 ligand | 10 s | about 6.5 fold | –
2 | (S)-Methyl-2-naphthoylamino-3-(4-nitrophenyl)propionate [SB328437] | – | – | reduces CNV volume in a dose-dependent and statistically significant manner
3 | Eotaxin-3: recombinant human eotaxin-3 (Peprotech), CCR3 ligand (protein, UniProt Q9Y258 24-94, looked up) C-C motif chemokine 26: TRGSDISKTCCFQYSHKPLPWTWVRSYEFTSNSCSQRAVIFTTKRGKKVCTHPRKKWVQKYISLLKTPKQL | 10 s | – | –
4 | Eotaxin-2: recombinant human eotaxin-2 (Peprotech), CCR3 ligand (protein, UniProt O00175 27-119, looked up) C-C motif chemokine 24: VVIPSPCCMFFVSKRIPENRVVSYQLSSRSTCLKAGVIFTTKKGQQFCGDPKQEWVQRYMKNLDAKQKKASPRARAVAVKGPVQRYPGNQTTC | 10 s | – | –
